Data from patent US20210108199A1, “Treatment for aggressive cancers by targeting C9ORF72” (The Trustees of Columbia University in the City of New York, priority 2017, published 2021).

Tested on: LAMP1
Experiment: LAMP1 western blot
Type: cell-based
Conditions: U87 cells
Experimental: For Western blot analysis, cells were lysed with lysis buffer (20 mM sodium phosphate (pH 7.0), 250 mM NaCl, 30 mM sodium pyrophosphate, 0.1% Nonidet™ P-40, 5 mM EDTA, 10 mM NaF, 0.1 mM Na3VO4, and 1 mM PMSF) supplemented with complete protease inhibitors (Roche™) and homogenized by passage through a 28 gauge needle. Protein concentration was measured with a Bio-Rad™ protein assay dye reagent and results were read using a spectrophotometer (BiophotometerPlus™ by Eppendorf™). Protein extracts were resolved by SDS PAGE on gradient (Thermo Fisher™) or 12% gels. Proteins were then electrotransferred at 350 mA for 80 minutes onto a PVDF membrane (Immobilon-P PVDF). Membranes were blocked with PBST with 5% milk and 1% BSA for 30 minutes. Quantitation of blots was performed Image Studio Lite software (LI-COR Biosciences™).
To this end, C9 was knocked down in U87 cells and employed a fluorescent autophagy marker ptfLC3 to mark autophagosomes and autophagolysosomes. […] The white arrows show vacuoles and the white box represents a zoom in of the cell area with vacuoles. […] The white box here represents a zoom in of the cell area with vacuoles, nuclei stained with DAPI (blue). FIG. 4B is a WB showing LAMP1 levels after control (siCtrl) and C9 KD (siC9; SEQ ID NO:631).

With “siC9: siRNA targeting C9 mRNA: UUAAUGAAACAAUAAUCACUC (SEQ ID NO:631; sense) and GUGAUUAUUGUUUCAUUAAUC (SEQ ID NO:632; antisense) (listed as RNA, chemistry not given here)” the LAMP1 levels was “increased levels”.
